{"source": "PubChem BioAssay AID1259407", "about": "(Chemical Carcinogenesis Research Information System (CCRIS), 2018)", "system": "CCRIS mutagenicity, Ames/micronucleus/aberration tests", "assay": "CCRIS mutagenicity studies", "key": {"[1]": {"conditions": "Test System: AMES SALMONELLA TYPHIMURIUM, Strain/Indicator: TA98, Metabolic Activation: NONE, Method: STANDARD PLATE"}, "[2]": {"conditions": "Test System: AMES SALMONELLA TYPHIMURIUM, Strain/Indicator: TA100, Metabolic Activation: NONE, Method: STANDARD PLATE"}}, "note": "The source made the active and inactive calls. No rule for the calls is given here.", "data": [{"smiles": "O=[N+]([O-])c1ccc2ccc3c4c(cc5ccc1c2c53)[C@H](O)[C@@H](O)C=C4", "values": [{"measurement": "mutagenic call", "setting": "Test System: AMES SALMONELLA TYPHIMURIUM, Strain/Indicator: TA98, Metabolic Activation: NONE", "value": "active; positive"}, {"measurement": "mutagenic call", "setting": "Test System: AMES SALMONELLA TYPHIMURIUM, Strain/Indicator: TA98, Metabolic Activation: RAT, LIVER, S-9, AROCLOR 1254", "value": "active; positive"}, {"measurement": "mutagenic call", "setting": "Test System: CHINESE HAMSTER OVARY, Strain/Indicator: CHO-K1-BH4 (HGPRT), Metabolic Activation: NONE", "value": "active; positive"}, {"measurement": "mutagenic call", "setting": "Test System: CHINESE HAMSTER OVARY, Strain/Indicator: CHO-K1-BH4 (HGPRT), Metabolic Activation: RAT, LIVER, S-9, 3-METHYLCHOLANTHRENE", "value": "active; positive"}]}, {"smiles": "O=C1OC(O)C(CCl)=C1Cl", "note": "(stereo not drawn)", "values": [{"measurement": "mutagenic call", "setting": "Test System: AMES SALMONELLA TYPHIMURIUM, Strain/Indicator: TA97, Metabolic Activation: NONE, Method: STANDARD PLATE", "value": "active; positive"}, {"measurement": "mutagenic call", "setting": "[1]", "value": "active; positive"}, {"measurement": "mutagenic call", "setting": "Test System: AMES SALMONELLA TYPHIMURIUM, Strain/Indicator: TA102, Metabolic Activation: NONE, Method: STANDARD PLATE", "value": "active; positive"}, {"measurement": "mutagenic call", "setting": "Test System: AMES SALMONELLA TYPHIMURIUM, Strain/Indicator: TA1535, Metabolic Activation: NONE, Method: STANDARD PLATE", "value": "active; positive"}, {"measurement": "mutagenic call", "setting": "Test System: CHINESE HAMSTER OVARY, Strain/Indicator: CHO-KTL3 (HPRT)/6-THIOGUANINE, Metabolic Activation: NONE", "value": "active; positive"}, {"measurement": "mutagenic call", "setting": "Test System: UDS RAT HEPATOCYTES, Strain/Indicator: THYMIDINE INCORPORATION, Metabolic Activation: NONE, Method: AUTORADIOGRAPHY", "value": "active; positive"}]}, {"smiles": "O=C(/C=C/c1ccccc1)c1ccc(Br)cc1", "values": [{"measurement": "mutagenic call", "setting": "[1]", "value": "inactive; negative"}, {"measurement": "mutagenic call", "setting": "Test System: AMES SALMONELLA TYPHIMURIUM, Strain/Indicator: TA98, Metabolic Activation: RAT, LIVER, S-9, AROCLOR 1254, Method: STANDARD PLATE", "value": "inactive; negative"}, {"measurement": "mutagenic call", "setting": "[2]", "value": "inactive; negative"}, {"measurement": "mutagenic call", "setting": "Test System: AMES SALMONELLA TYPHIMURIUM, Strain/Indicator: TA100, Metabolic Activation: RAT, LIVER, S-9, AROCLOR 1254, Method: STANDARD PLATE", "value": "inactive; negative"}]}, {"smiles": "OC1c2ccccc2Oc2ccccc21", "values": [{"measurement": "mutagenic call", "setting": "Test System: AMES SALMONELLA TYPHIMURIUM, Strain/Indicator: TA97, Metabolic Activation: NONE, Method: PREINCUBATION", "value": "active; positive"}, {"measurement": "mutagenic call", "setting": "Test System: AMES SALMONELLA TYPHIMURIUM, Strain/Indicator: TA97, Metabolic Activation: RAT, LIVER, S-9, PHENOBARBITAL AND 5,6-BENZOFLAVONE, Method: PREINCUBATION", "value": "active; positive"}, {"measurement": "mutagenic call", "setting": "Test System: AMES SALMONELLA TYPHIMURIUM, Strain/Indicator: TA98, Metabolic Activation: NONE, Method: PREINCUBATION", "value": "active; positive"}, {"measurement": "mutagenic call", "setting": "Test System: AMES SALMONELLA TYPHIMURIUM, Strain/Indicator: TA98, Metabolic Activation: RAT, LIVER, S-9, PHENOBARBITAL AND 5,6-BENZOFLAVONE, Method: PREINCUBATION", "value": "active; positive"}, {"measurement": "mutagenic call", "setting": "Test System: AMES SALMONELLA TYPHIMURIUM, Strain/Indicator: TA100, Metabolic Activation: NONE, Method: PREINCUBATION", "value": "inactive; negative"}, {"measurement": "mutagenic call", "setting": "Test System: AMES SALMONELLA TYPHIMURIUM, Strain/Indicator: TA100, Metabolic Activation: RAT, LIVER, S-9, PHENOBARBITAL AND 5,6-BENZOFLAVONE, Method: PREINCUBATION", "value": "inactive; negative"}, {"measurement": "mutagenic call", "setting": "Test System: AMES SALMONELLA TYPHIMURIUM, Strain/Indicator: TA2637, Metabolic Activation: NONE, Method: PREINCUBATION", "value": "active; positive"}, {"measurement": "mutagenic call", "setting": "Test System: AMES SALMONELLA TYPHIMURIUM, Strain/Indicator: TA2637, Metabolic Activation: RAT, LIVER, S-9, PHENOBARBITAL AND 5,6-BENZOFLAVONE, Method: PREINCUBATION", "value": "inactive; negative"}]}, {"smiles": "COc1cc(C[C@@H](CO)[C@H](CO)Cc2ccc(O)c(OC)c2)ccc1O", "values": [{"measurement": "mutagenic call", "setting": "Test System: CHINESE HAMSTER V79 CELLS, Strain/Indicator: V79 CELLS (HPRT)/6-THIOGUANINE, Metabolic Activation: NONE, Method: SUSPENSION/PLATE", "value": "inactive; negative"}, {"measurement": "mutagenic call", "setting": "Test System: CHINESE HAMSTER V-79, Strain/Indicator: V-79 (HPRT)/6-THIOGUANINE, Metabolic Activation: NONE", "value": "inactive; negative"}]}, {"smiles": "O=NN1CN(N=O)CN(N=O)C1", "values": [{"measurement": "mutagenic call", "setting": "Test System: Ames Salmonella typhimurium, Strain/Indicator: TA97a, Metabolic Activation: None, Method: Preincubation", "value": "inactive; negative"}, {"measurement": "mutagenic call", "setting": "Test System: Ames Salmonella typhimurium, Strain/Indicator: TA97a, Metabolic Activation: Rat, Liver, S-9, Aroclor 1254, Method: Preincubation", "value": "active; positive"}, {"measurement": "mutagenic call", "setting": "Test System: Ames Salmonella typhimurium, Strain/Indicator: TA98, Metabolic Activation: Rat, Liver, S-9, Aroclor 1254, Method: Preincubation", "value": "inactive; negative"}, {"measurement": "mutagenic call", "setting": "Test System: Ames Salmonella typhimurium, Strain/Indicator: TA100, Metabolic Activation: Rat, Liver, S-9, Aroclor 1254, Method: Preincubation", "value": "inactive; negative"}, {"measurement": "mutagenic call", "setting": "Test System: Ames Salmonella typhimurium, Strain/Indicator: TA102, Metabolic Activation: Rat, Liver, S-9, Aroclor 1254, Method: Preincubation", "value": "active; positive"}]}, {"smiles": "Oc1ccc2c(c1)[nH]c1ccccc12", "values": [{"measurement": "mutagenic call", "setting": "Test System: CHINESE HAMSTER OVARY, Strain/Indicator: CHO-K1-BH4 (HGPRT)/6-THIOGUANINE, Metabolic Activation: RAT, LIVER, S-9, AROCLOR (4%)", "value": "active; positive"}]}, {"smiles": "Cc1ccc(NCCCl)cc1", "values": [{"measurement": "mutagenic call", "setting": "[1]", "value": "active; positive"}, {"measurement": "mutagenic call", "setting": "[2]", "value": "active; positive"}, {"measurement": "mutagenic call", "setting": "Test System: AMES SALMONELLA TYPHIMURIUM, Strain/Indicator: TA1977, Metabolic Activation: NONE, Method: STANDARD PLATE", "value": "active; positive"}, {"measurement": "mutagenic call", "setting": "Test System: AMES SALMONELLA TYPHIMURIUM, Strain/Indicator: TA1978, Metabolic Activation: NONE, Method: STANDARD PLATE", "value": "inactive; negative"}]}, {"smiles": "O=[N+]([O-])c1cc2[nH]c3ccc4ccccc4c3c2c2ccc(O)cc12", "values": [{"measurement": "mutagenic call", "setting": "[1]", "value": "inactive; negative"}, {"measurement": "mutagenic call", "setting": "Test System: AMES SALMONELLA TYPHIMURIUM, Strain/Indicator: TA98, Metabolic Activation: RAT, LIVER, S-9, 3-METHYLCHOLANTHRENE, Method: STANDARD PLATE", "value": "active; positive"}, {"measurement": "mutagenic call", "setting": "[2]", "value": "active; positive"}, {"measurement": "mutagenic call", "setting": "Test System: AMES SALMONELLA TYPHIMURIUM, Strain/Indicator: TA100, Metabolic Activation: RAT, LIVER, S-9, 3-METHYLCHOLANTHRENE, Method: STANDARD PLATE", "value": "active; positive"}]}]}
